From ChEMBL document CHEMBL1201862, “PubChem BioAssay data set” (2004)
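Method: 48-hour compound exposure of cells in 96-well plates, five concentrations, linear interpolation of endpoints. The concentration for 50% growth inhibition is given as GI50.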 The source made the active and inactive calls. No stated cut-off is given here; in the data, active = GI50 up to about 1.1 µM and inactive = higher.

How the values were obtained:
Assay in all cases: NCI anticancer screen, dose series, 48 h
COLO 205 = tested on: COLO 205
HCC 2998 = tested on: HCC 2998
HOP-62 = tested on: HOP-62
HT-29 = tested on: HT-29
IGROV-1 = tested on: IGROV-1
K562 = tested on: K562
LOX IMVI = tested on: LOX IMVI
MOLT-4 = tested on: MOLT-4
NCI-H226 = tested on: NCI-H226
NCI-H23 = tested on: NCI-H23
OVCAR-3 = tested on: OVCAR-3
RPMI-8226 = tested on: RPMI-8226
RXF 393 = tested on: RXF 393
SF-268 = tested on: SF-268
SK-MEL-2 = tested on: SK-MEL-2
SK-MEL-5 = tested on: SK-MEL-5
SK-OV-3 = tested on: SK-OV-3
SNB-19 = tested on: SNB-19
U-251 = tested on: U-251
MCF7 = tested on: MCF7

Measured: GI50

Cc1ccccc1OCC(COC(=O)Nc1ccccc1)OC(=O)Nc1ccccc1 (centres undefined)
inactive: COLO 205 72.3 µM | HCC 2998 83.8 µM | HOP-62 31.9 µM | HT-29 31.6 µM | IGROV-1 > 100 µM | K562 4.05 µM | LOX IMVI 15.1 µM | MOLT-4 3.49 µM | NCI-H226 25.8 µM | NCI-H23 54 µM | OVCAR-3 87.7 µM | RPMI-8226 1.81 µM | RXF 393 7.24 µM | SF-268 50.9 µM | SK-MEL-2 22 µM | SK-MEL-5 > 100 µM | SK-OV-3 59.7 µM | SNB-19 22.1 µM | U-251 38 µM

CC1=C[C@]2(CC(C)C3C(CC4(C)C5CCC6C(C)(C)C(=O)CC[C@@]67C[C@@]57CC[C@]34C)O2)OC1=O (some centres undefined)
inactive: COLO 205 36.9 µM | HCC 2998 18.1 µM | HT-29 9.31 µM | IGROV-1 6.32 µM | K562 4.03 µM | LOX IMVI 3.46 µM | MOLT-4 10.7 µM | NCI-H226 1.88 µM | NCI-H23 7.64 µM | RPMI-8226 9.2 µM | RXF 393 5.11 µM | SF-268 33.9 µM | SK-MEL-2 34.4 µM | SK-MEL-5 2.65 µM | SNB-19 15.7 µM | U-251 14.6 µM

COc1cc(C(C)O)c(S(=O)(=O)CC(C)O)nn1 (centres undefined)
inactive: COLO 205 > 100 µM | HCC 2998 > 100 µM | HT-29 > 100 µM | IGROV-1 > 100 µM | K562 72.9 µM | LOX IMVI > 100 µM | MCF7 > 100 µM | MOLT-4 77.4 µM | NCI-H226 64.1 µM | NCI-H23 > 100 µM | OVCAR-3 > 100 µM | RPMI-8226 43.9 µM | RXF 393 85.3 µM | SK-MEL-5 > 100 µM | SK-OV-3 > 100 µM | SNB-19 > 100 µM

CCOC(C)OC1CC(n2cc(C)c(=O)[nH]c2=O)OC1CO (centres undefined)
inactive: COLO 205 > 100 µM | HCC 2998 > 100 µM | HOP-62 > 100 µM | HT-29 > 100 µM | IGROV-1 > 100 µM | K562 > 100 µM | LOX IMVI > 100 µM | MOLT-4 > 100 µM | NCI-H226 > 100 µM | NCI-H23 > 100 µM | OVCAR-3 > 100 µM | RPMI-8226 > 100 µM | RXF 393 > 100 µM | SF-268 > 100 µM | SK-MEL-2 > 100 µM | SK-OV-3 > 100 µM | SNB-19 > 100 µM | U-251 > 100 µM
